Experimental data published in BindingDB's records for doi:10.1021/jm00080a021 (Notre-Dame Hospital Research, 1992).

Molecular target: Ribonucleoside-diphosphate reductase large subunit R1 (Herpes simplex virus type 1)
Assay: Inhibitory concentration against HSV-1 ribonucleotide reductase R1 protein binding

Compound	IC50 [µM]
CC(=O)N[C@@H](Cc1ccc(O)cc1)C(=O)N[C@@H](C)C(=O)NCC(=O)N[C@H](C(=O)N[C@H](C(=O)N[C@@H](C(=O)N[C@@H](CC(N)=O)C(=O)N[C@@H](CC(=O)O)C(=O)N[C@@H](CC(C)C)C(=O)O)C(C)C)C(C)C)[C@@H](C)O [2-{2-[2-(2-{2-[2-(2-{2-[2-Acetylamino-3-(4-hydroxy-phenyl)-propionylamino]-propionylamino}-acetylamino)-3-hydroxy-butyrylamino]-3-methyl-butyrylamino}-3-methyl-butyrylamino)-3-carbamoyl-propionylamino]-3-carboxy-propionylamino}-4-methyl-pentanoicacid]	> 1000
CC[C@H](C)[C@H](NC(=O)[C@@H](NC(=O)[C@@H](NC(=O)CNC(=O)[C@H](C)NC(=O)[C@H](Cc1ccc(O)cc1)NC(C)=O)[C@@H](C)O)C(C)C)C(=O)N[C@@H](CC(N)=O)C(=O)N[C@@H](CCC(=O)O)C(=O)N[C@@H](CC(C)C)C(=O)O [2-{2-[2-(2-{2-[2-(2-{2-[2-Acetylamino-3-(4-hydroxy-phenyl)-propionylamino]-propionylamino}-acetylamino)-3-hydroxy-butyrylamino]-3-methyl-butyrylamino}-3-methyl-pentanoylamino)-3-carbamoyl-propionylamino]-4-carboxy-butyrylamino}-4-methyl-pentanoicacid]	650
Ac-YAGTVINCL-OH [2-{2-[2-(2-{2-[2-(2-{2-[2-Acetylamino-3-(4-hydroxy-phenyl)-propionylamino]-propionylamino}-acetylamino)-3-hydroxy-butyrylamino]-3-methyl-butyrylamino}-3-methyl-pentanoylamino)-3-carbamoyl-propionylamino]-3-mercapto-propionylamino}-4-methyl-pentanoic acid]	> 1000
Ac-YAGTVINSL-OH [2-{2-[2-(2-{2-[2-(2-{2-[2-Acetylamino-3-(4-hydroxy-phenyl)-propionylamino]-propionylamino}-acetylamino)-3-hydroxy-butyrylamino]-3-methyl-butyrylamino}-3-methyl-pentanoylamino)-3-carbamoyl-propionylamino]-3-hydroxy-propionylamino}-4-methyl-pentanoic acid]	> 1000

The remaining lines, values ahead:

IC50 [µM]	Compound
640	CC[C@H](C)[C@H](NC(=O)[C@@H](NC(=O)[C@@H](NC(=O)CNC(=O)[C@H](C)NC(=O)[C@H](Cc1ccc(O)cc1)NC(C)=O)[C@@H](C)O)C(C)C)C(=O)N[C@@H](CC(N)=O)C(=O)N[C@@H](CC(N)=O)C(=O)N[C@@H](CC(C)C)C(=O)O
395	CC[C@H](C)[C@H](NC(=O)[C@@H](NC(=O)[C@@H](NC(=O)CNC(=O)[C@H](C)NC(=O)[C@H](Cc1ccc(O)cc1)NC(C)=O)[C@@H](C)O)C(C)C)C(=O)N[C@@H](CO)C(=O)N[C@@H](CC(=O)O)C(=O)N[C@@H](CC(C)C)C(=O)O [2-{2-[2-(2-{2-[2-(2-{2-[2-Acetylamino-3-(4-hydroxy-phenyl)-propionylamino]-propionylamino}-acetylamino)-3-hydroxy-butyrylamino]-3-methyl-butyrylamino}-3-methyl-pentanoylamino)-3-hydroxy-propionylamino]-3-carboxy-propionylamino}-4-methyl-pentanoicacid]
